Patent US20240166635A1, “AMINOHETEROARYL KINASE INHIBITORS” (Anrui Biomedical Technology (Guangzhou) Co.,Ltd., priority 2020, published 2024)

Assays:
Format in all cases: biochemical
[1] = biological target: CDK1/CyclinB (Homo sapiens (Human), UniProt P06493); experiment: CDK1/CyclinB kinase inhibitory activity (Caliper mobility shift); conditions: read-out: CDK1/Cyclin B1 IC50
[2] = biological target: CDK6/CyclinD1 (Homo sapiens (Human), UniProt Q00534); experiment: CDK6/CyclinD1 kinase inhibitory activity (Caliper mobility shift); conditions: read-out: CDK6/Cyclin D1 IC50
[3] = biological target: CDK7/CyclinH/MAT1 (Homo sapiens (Human), UniProt P50613); experiment: CDK7/CyclinH/MAT1 kinase inhibitory activity (Caliper mobility shift)
[4] = biological target: CDK2/CyclinE1 (Homo sapiens (Human), UniProt P24941); experiment: CDK2/CyclinE1 kinase inhibitory activity (Caliper mobility shift); conditions: read-out: CDK2/Cyclin El IC50
[5] = biological target: CDK4/Cyclin D1 (Homo sapiens (Human), UniProt P11802); experiment: CDK4/CyclinD1 kinase inhibitory activity (Caliper mobility shift)
[6] = biological target: CDK9/CyclinT1 (Homo sapiens (Human), UniProt P50750); experiment: CDK9/CyclinT1 kinase inhibitory activity (Caliper mobility shift); conditions: read-out: CDK9/Cyclin T1 IC50
Chain of CDK9/CyclinT1 (P50750 whole entry): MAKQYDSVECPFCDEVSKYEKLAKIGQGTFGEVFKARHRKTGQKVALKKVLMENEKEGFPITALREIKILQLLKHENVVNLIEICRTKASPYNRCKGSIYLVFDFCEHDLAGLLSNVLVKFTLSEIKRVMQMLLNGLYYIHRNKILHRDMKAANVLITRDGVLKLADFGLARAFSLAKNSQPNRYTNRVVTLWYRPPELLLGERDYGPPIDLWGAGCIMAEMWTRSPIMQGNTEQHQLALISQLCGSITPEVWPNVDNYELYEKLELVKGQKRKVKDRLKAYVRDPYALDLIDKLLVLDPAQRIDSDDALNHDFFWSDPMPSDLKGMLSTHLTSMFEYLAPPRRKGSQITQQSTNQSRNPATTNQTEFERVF
Chain of CDK9/CyclinT1 (O60563 whole entry partner): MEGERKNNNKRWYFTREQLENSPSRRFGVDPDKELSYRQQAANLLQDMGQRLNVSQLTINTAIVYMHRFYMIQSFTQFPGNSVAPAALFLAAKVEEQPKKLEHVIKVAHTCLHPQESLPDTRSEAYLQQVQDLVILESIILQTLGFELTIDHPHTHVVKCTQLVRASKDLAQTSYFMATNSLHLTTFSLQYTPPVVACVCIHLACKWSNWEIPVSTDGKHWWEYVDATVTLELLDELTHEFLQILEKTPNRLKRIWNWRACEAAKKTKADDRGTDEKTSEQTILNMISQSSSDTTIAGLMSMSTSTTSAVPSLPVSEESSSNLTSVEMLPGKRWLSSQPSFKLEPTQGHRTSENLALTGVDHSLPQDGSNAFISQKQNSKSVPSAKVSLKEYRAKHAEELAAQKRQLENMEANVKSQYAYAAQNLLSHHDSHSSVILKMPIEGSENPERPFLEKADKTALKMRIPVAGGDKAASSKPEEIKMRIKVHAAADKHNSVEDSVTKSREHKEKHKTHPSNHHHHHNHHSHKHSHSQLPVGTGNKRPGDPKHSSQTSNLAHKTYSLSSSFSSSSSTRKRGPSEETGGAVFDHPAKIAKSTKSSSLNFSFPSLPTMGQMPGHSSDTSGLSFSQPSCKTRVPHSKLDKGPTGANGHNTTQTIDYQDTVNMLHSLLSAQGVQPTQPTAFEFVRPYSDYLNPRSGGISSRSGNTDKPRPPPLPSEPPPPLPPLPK

Chain of CDK6/CyclinD1 (Q00534 whole entry): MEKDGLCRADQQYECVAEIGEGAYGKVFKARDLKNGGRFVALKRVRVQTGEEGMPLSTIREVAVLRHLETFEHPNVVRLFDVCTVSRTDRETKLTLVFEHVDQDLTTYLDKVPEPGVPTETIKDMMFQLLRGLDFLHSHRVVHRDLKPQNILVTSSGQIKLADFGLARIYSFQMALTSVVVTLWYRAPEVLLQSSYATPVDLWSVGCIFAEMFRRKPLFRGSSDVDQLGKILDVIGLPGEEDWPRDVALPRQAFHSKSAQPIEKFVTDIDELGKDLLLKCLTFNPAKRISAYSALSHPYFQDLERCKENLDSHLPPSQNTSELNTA
Chain of CDK6/CyclinD1 (P24385 whole entry partner): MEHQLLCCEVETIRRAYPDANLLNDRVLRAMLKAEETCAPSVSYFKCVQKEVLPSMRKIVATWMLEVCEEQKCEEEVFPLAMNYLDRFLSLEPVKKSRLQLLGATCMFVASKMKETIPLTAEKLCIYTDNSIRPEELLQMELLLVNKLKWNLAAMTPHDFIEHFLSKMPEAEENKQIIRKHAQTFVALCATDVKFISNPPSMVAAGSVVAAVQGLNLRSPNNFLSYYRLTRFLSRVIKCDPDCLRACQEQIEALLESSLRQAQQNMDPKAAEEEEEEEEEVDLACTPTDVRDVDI
Chain of CDK4/Cyclin D1 (P11802 whole entry): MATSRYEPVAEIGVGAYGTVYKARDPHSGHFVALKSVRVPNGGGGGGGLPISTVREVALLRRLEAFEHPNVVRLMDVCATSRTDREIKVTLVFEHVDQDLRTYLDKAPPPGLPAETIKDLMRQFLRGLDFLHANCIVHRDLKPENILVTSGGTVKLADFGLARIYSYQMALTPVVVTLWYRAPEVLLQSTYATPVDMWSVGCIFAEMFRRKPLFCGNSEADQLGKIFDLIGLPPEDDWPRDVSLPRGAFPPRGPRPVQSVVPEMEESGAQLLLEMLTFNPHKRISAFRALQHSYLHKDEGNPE
Chain of CDK4/Cyclin D1 (P24385 whole entry partner): as the sequence (P24385 whole entry partner) above
Chain of CDK7/CyclinH/MAT1 (P50613 whole entry): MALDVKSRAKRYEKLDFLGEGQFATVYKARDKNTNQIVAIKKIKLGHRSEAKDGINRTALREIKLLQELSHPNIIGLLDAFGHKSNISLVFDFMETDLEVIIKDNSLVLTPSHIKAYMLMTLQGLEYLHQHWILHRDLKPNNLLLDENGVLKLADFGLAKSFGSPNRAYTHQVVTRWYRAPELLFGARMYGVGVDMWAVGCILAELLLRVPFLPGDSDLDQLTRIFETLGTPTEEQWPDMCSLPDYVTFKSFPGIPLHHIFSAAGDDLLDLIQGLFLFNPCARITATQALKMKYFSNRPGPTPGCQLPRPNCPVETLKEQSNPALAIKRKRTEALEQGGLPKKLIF
Chain of CDK7/CyclinH/MAT1 (P51946 whole entry partner): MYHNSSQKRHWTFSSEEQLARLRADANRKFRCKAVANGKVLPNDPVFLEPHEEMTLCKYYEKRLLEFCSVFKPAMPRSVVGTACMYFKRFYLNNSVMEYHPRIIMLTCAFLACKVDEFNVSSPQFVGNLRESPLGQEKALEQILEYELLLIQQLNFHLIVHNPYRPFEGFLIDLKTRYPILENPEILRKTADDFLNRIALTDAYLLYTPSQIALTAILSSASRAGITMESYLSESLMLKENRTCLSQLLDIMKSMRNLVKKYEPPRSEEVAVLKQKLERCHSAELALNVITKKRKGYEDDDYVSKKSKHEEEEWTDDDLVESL
Chain of CDK7/CyclinH/MAT1 (P51948 whole entry partner): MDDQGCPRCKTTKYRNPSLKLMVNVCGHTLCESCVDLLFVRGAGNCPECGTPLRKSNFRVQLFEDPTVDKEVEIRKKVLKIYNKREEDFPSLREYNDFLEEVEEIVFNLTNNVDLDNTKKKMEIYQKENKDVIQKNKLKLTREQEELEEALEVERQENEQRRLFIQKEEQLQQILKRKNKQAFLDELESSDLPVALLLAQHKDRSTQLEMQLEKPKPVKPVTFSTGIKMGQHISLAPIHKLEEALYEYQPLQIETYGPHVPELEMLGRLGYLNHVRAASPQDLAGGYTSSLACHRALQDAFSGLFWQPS
Chain of CDK1/CyclinB (P06493 whole entry): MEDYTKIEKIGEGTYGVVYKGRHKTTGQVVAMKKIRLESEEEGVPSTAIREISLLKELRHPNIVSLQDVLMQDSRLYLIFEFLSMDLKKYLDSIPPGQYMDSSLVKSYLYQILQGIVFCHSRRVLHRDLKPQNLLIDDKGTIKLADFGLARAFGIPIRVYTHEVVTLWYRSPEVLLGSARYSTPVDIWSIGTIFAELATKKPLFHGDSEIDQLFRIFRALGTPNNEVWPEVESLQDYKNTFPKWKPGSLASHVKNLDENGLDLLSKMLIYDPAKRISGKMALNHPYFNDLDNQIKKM
Chain of CDK1/CyclinB (P14635 whole entry partner): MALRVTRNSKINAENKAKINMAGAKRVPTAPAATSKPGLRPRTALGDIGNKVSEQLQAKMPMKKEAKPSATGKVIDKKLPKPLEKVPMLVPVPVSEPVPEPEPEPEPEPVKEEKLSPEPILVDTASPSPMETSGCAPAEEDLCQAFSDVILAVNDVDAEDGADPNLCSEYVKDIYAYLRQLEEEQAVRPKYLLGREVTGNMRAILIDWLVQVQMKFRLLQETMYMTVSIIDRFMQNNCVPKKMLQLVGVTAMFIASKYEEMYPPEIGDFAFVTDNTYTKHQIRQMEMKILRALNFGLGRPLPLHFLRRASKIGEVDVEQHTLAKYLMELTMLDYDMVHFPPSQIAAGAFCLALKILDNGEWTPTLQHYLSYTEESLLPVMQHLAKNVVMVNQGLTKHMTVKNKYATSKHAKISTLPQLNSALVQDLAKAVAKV

| Compound | IC50 [1] [nM] | IC50 [2] [nM] | IC50 [3] [nM] | IC50 [4] [nM] | IC50 [5] [nM] | IC50 [6] [nM] |
| --- | --- | --- | --- | --- | --- | --- |
| C[C@]1(O)COC[C@H]1Oc1nc(NC2CCN(S(C)(=O)=O)CC2)ncc1C(F)(F)F (relative stereo) [Example 104b, cis-3-methyl-4-((2-((1-(methylsulfonyl)piperidin-4-yl)amino)-5-(trifluoromethyl)pyrimidin-4-yl)oxy)tetrahydrofuran-3-ol] | 100 to 1000 | 100 to 1000 |  | 10 to 100 | 100 to 1000 | ≥ 1000 |
| CC1(O)COCCC1Oc1nc(NC2CCN(S(C)(=O)=O)CC2)ncc1C#N (single isomer, unassigned) [Example 45b] | ≥ 1000 | 100 to 1000 |  | 100 to 1000 | 100 to 1000 | ≥ 1000 |
| N#Cc1cnc(Nc2ccc(S(N)(=O)=O)cc2)nc1-c1cccc(F)c1 [Example 95] | 10 to 100 | ≥ 1000 | ≥ 1000 | 10 to 100 | 100 to 1000 |  |
| [2H]C([2H])([2H])NS(=O)(=O)c1ccc(Nc2ncc(C(F)(F)F)c(O[C@H]3CCCOC[C@H]3O)n2)cc1 (single isomer, unassigned) [Example 103b, cis-4-((4-((3-hydroxyoxepan-4-yl)oxy)-5-(trifluoromethyl)pyrimidin-2-yl)amino)-N-(methyl-d3)benzenesulfonamide] | 100 to 1000 |  | ≥ 1000 |  | ≥ 1000 |  |
| [2H]C([2H])([2H])NS(=O)(=O)c1ccc(Nc2ncc(C(F)(F)F)c(OC3CCOCCC3O)n2)cc1 (single isomer, unassigned) [Example 102a, 4-((4-((5-hydroxyoxepan-4-yl)oxy)-5-(trifluoromethyl)pyrimidin-2-yl)amino)-N-(methyl-d3)benzenesulfonamide] | 100 to 1000 | ≥ 1000 | ≥ 1000 | < 10 | ≥ 1000 |  |
| Cn1cc(S(=O)(=O)N2CCC(Nc3ncc(C(F)(F)F)c(OC4CCOCC4(C)O)n3)CC2)cn1 (single isomer, unassigned) [Example 125b] |  | 100 to 1000 | 100 to 1000 | 10 to 100 | 100 to 1000 |  |
| CC1(O)CCC(F)(F)CC1Oc1nc(NC2CCN(S(C)(=O)=O)CC2)ncc1C#N (single isomer, unassigned) [Example 46a] |  | 100 to 1000 |  | 100 to 1000 | 100 to 1000 |  |
| CC1(O)CC(F)(F)CC1Oc1nc(NC2CCN(S(=O)(=O)CC3CC3)CC2)ncc1C#N (single isomer, unassigned) [Example 44a] | 100 to 1000 | 10 to 100 |  | 10 to 100 | 100 to 1000 | ≥ 1000 |
| C[C@]1(O)CCC[C@H]1Oc1nc(NC2CCN(S(C)(=O)=O)CC2)ncc1C#N (relative stereo) [Example 5b, cis-4-((2-hydroxy-2-methylcyclopentyl-4,4-d2)oxy)-2-((1-(methylsulfonyl)piperidin-4-yl)amino)pyrimidine-5-carbonitrile] | 100 to 1000 | 10 to 100 |  | 10 to 100 | 100 to 1000 | ≥ 1000 |
| CC1(O)COCCC1Oc1nc(NC2CCN(S(C)(=O)=O)CC2)ncc1C(F)(F)F (single isomer, unassigned) [Example 124b] | ≥ 1000 | 100 to 1000 |  | 100 to 1000 | 100 to 1000 | ≥ 1000 |
| CC1(O)CCCC1Oc1nc(NC2CCN(S(=O)(=O)C(F)(F)F)CC2)ncc1C#N (single isomer, unassigned) [Example 42b] |  | 100 to 1000 | ≥ 1000 | 10 to 100 | 100 to 1000 |  |
| Cn1cnc(S(=O)(=O)N2CCC(Nc3ncc(C#N)c(OC4CCCC4(C)O)n3)CC2)n1 (single isomer, unassigned) [Example 51b] |  | 100 to 1000 | ≥ 1000 | 10 to 100 | 100 to 1000 |  |
| Cn1cc(S(=O)(=O)N2CCC(Nc3ncc(C#N)c(O[C@@H]4CCC(F)(F)C[C@]4(C)O)n3)CC2)cn1 (relative stereo) [Example 7b, cis-4-((4,4-difluoro-2-hydroxy-2-methylcyclohexyl)oxy)-2-((1-((1-methyl-1H-pyrazol-4-yl)sulfonyl)piperidin-4-yl)amino)pyrimidine-5-carbonitrile] |  | 100 to 1000 | ≥ 1000 | 10 to 100 | 100 to 1000 |  |
| CNc1cccc(-c2nc(Nc3ccc(S(N)(=O)=O)cc3)ncc2C#N)c1 [Example 97] | 100 to 1000 | ≥ 1000 | ≥ 1000 | 10 to 100 | 100 to 1000 |  |

Next, values leading:

| IC50 [1] [nM] | IC50 [2] [nM] | IC50 [3] [nM] | IC50 [4] [nM] | IC50 [5] [nM] | IC50 [6] [nM] | Compound |
| --- | --- | --- | --- | --- | --- | --- |
| < 10 | 10 to 100 | 100 to 1000 | < 10 | 10 to 100 | 10 to 100 | NS(=O)(=O)c1ccc(Nc2ncc(C(F)(F)F)c(OC3CCCCC3O)n2)cc1 (single isomer, unassigned) [Example 111b] |
|  | 10 to 100 | 100 to 1000 | < 10 | 10 to 100 |  | CC1(O)CCCC1Oc1nc(NC2CCN(S(=O)(=O)C(F)(F)F)CC2)ncc1C#N (single isomer, unassigned) [Example 42a] |
| 10 to 100 | 10 to 100 | 10 to 100 | < 10 | < 10 | 100 to 1000 | CC1(O)CCCC1Oc1nc(NC2CCN(S(=O)(=O)CF)CC2)ncc1C#N (single isomer, unassigned) [Example 37a] |
| < 10 | < 10 | 100 to 1000 | < 10 | < 10 | 10 to 100 | CC1(COc2nc(NC3CCN(S(=O)(=O)CCO)CC3)ncc2C#N)CCCC1 [Example 57] |
| 10 to 100 | 100 to 1000 | 100 to 1000 | < 10 | 100 to 1000 | 100 to 1000 | [2H]C([2H])([2H])NS(=O)(=O)c1ccc(Nc2ncc(CC)c(OC3CCCC3O)n2)cc1 (single isomer, unassigned) [Example 149a] |
| 10 to 100 | 100 to 1000 | 100 to 1000 | < 10 | 100 to 1000 | 100 to 1000 | [2H]C([2H])([2H])NS(=O)(=O)c1ccc(Nc2ncc(CC)c(OC3COCC3(C)O)n2)cc1 (single isomer, unassigned) [Example 150a] |
| 10 to 100 | 10 to 100 | ≥ 1000 | < 10 | 10 to 100 | 100 to 1000 | N#Cc1cnc(Nc2ccc(S(N)(=O)=O)cc2)nc1OC1CCCCCC1O (single isomer, unassigned) [Example 22a] |
| 100 to 1000 | 10 to 100 |  | 10 to 100 | 100 to 1000 | ≥ 1000 | C[C@]1(O)CC(F)(F)C[C@H]1Oc1nc(NC2CCN(S(C)(=O)=O)CC2)ncc1C#N (relative stereo) [Example 4b, cis-4-((4,4-difluoro-2-hydroxy-2-methylcyclopentyl)oxy)-2-((1-(methylsulfonyl)piperidin-4-yl)amino)pyrimidine-5-carbonitrile] |
| 10 to 100 | 100 to 1000 | 100 to 1000 | < 10 | 100 to 1000 | 100 to 1000 | [2H]C([2H])([2H])NS(=O)(=O)c1ccc(Nc2ncc(Cl)c(OC3COCC3(C)O)n2)cc1 (single isomer, unassigned) [Example 140a] |
| < 10 | 10 to 100 | 100 to 1000 | < 10 | < 10 | 100 to 1000 | CC1(COc2nc(NC3CCN(S(N)(=O)=O)CC3)ncc2C#N)CCCC1 [Example 56] |
| 10 to 100 | 10 to 100 | 100 to 1000 | < 10 | 10 to 100 | 10 to 100 | N#Cc1cnc(Nc2ccc(S(N)(=O)=O)cc2)nc1OC1CCCC1 [Example 10] |
|  | 10 to 100 | ≥ 1000 | 10 to 100 | 10 to 100 |  | CC1(O)CCCC1Oc1nc(NC2CCN(S(=O)(=O)CC(F)(F)F)CC2)ncc1C#N (single isomer, unassigned) [Example 43b] |
| 10 to 100 | 10 to 100 |  | < 10 | < 10 | 100 to 1000 | C[C@]1(O)CCC[C@H]1Oc1nc(NC2CCN(S(C)(=O)=O)CC2)ncc1C#N (relative stereo) [Example 5a, cis-4-((2-hydroxy-2-methylcyclopentyl-4,4-d2)oxy)-2-((1-(methylsulfonyl)piperidin-4-yl)amino)pyrimidine-5-carbonitrile] |
|  | 10 to 100 | 100 to 1000 | < 10 | 10 to 100 |  | Cn1cnc(S(=O)(=O)N2CCC(Nc3ncc(C#N)c(OC4CCCC4(C)O)n3)CC2)n1 (single isomer, unassigned) [Example 51a] |
|  | 10 to 100 | ≥ 1000 | 10 to 100 | 10 to 100 |  | CC1(O)CCCC1Oc1nc(NC2CCN(S(=O)(=O)CC3CCOC3)CC2)ncc1C#N (single isomer, unassigned) [Example 40b] |
| 10 to 100 | 10 to 100 |  | < 10 | 10 to 100 | ≥ 1000 | Cn1cc(S(=O)(=O)N2CCC(Nc3ncc(C#N)c(OC4CCCC4(C)O)n3)CC2)cn1 (single isomer, unassigned) [Example 48b] |
|  | 10 to 100 | ≥ 1000 | < 10 | 10 to 100 |  | Cn1cnc(S(=O)(=O)N2CCC(Nc3ncc(C#N)c(OC4CCCC4(C)O)n3)CC2)c1 (single isomer, unassigned) [Example 50b] |
|  | 10 to 100 | 100 to 1000 | < 10 | 10 to 100 |  | CO[C@H]1C[C@](C)(COc2nc(NC3CCN(S(=O)(=O)c4cnn(C)c4)CC3)ncc2C#N)C1 [Example 64a] |
